5 compounds from patent US6706704B2 (priority 2001, dated 2004) can be followed below.

The subject of assay [1] is CO2 responsiveness of phrenic nerve activity. More on the design: species or system cat. Conditions: in vivo.
Assay [2] relates to bulbospinal Aug-I neurons of the VRG. Description: Iontophoresis of DAMGO and opioid receptor blockers on bulbospinal inspiratory (Aug-I) neurons, extracellular recording. It counts as in vivo, cat. The conditions noted are these: for effect of opioid receptor blocker on DAMGO-mediated depression: naloxonazine 50-90 nA (15 neurons), naltrindole 50-100 nA (10 neurons).
For assay [3], the system named is D1-dopamine receptors (phrenic nerve activity). Set-up: species or system cat. Conditions: in vivo.

In the case of `Br.C=CCN1CCc2c(cc(O)c(O)c2Cl)C(c2ccccc2)C1` (racemic) [(±)-chloro-APB, (+/−)6-chloro-7,8-dihydroxy-3-allyl-1-phenyl-2,3,4,5-tetrahydro-1H-3-benzazepine hydrobromide], in assay [1], the “sensitivity of PN activity to CO2” value is on record as “did not significantly alter the sensitivity of PN activity to CO2”.

Turning to `C[C@@H](NC(=O)[C@@H](N)Cc1ccc(O)cc1)C(=O)NCC(=O)N(C)[C@@H](Cc1ccccc1)C(=O)NCCO` [DAMGO, D-Ala^2,N-Me-Phe^4,Gly-ol^5-Enkephalin], the DAMGO-mediated depression in assay [2] (DAMGO without blocker) is listed as 50-85%. Moreover, in assay [2] (after DAMGO iontophoresis), the “time to restoration of control activity during recovery” value fell in the range of 60 to 90 s. For the same compound, the action potential frequency in assay [2] (iontophoresis 1-3 minutes, 50-90 nA ejecting currents) is listed as 50-85 % of control. The “effect on discharges of Aug-I neurons” value in assay [2] (iontophoresis, 25 neurons, pentobarbital-anesthetized cats) is given as “depressed discharges of all Aug-I neurons”.

On to `C=CCN1CC[C@]23c4c5ccc(O)c4O[C@H]2/C(=N/N=C2\CC[C@@]4(O)[C@H]6Cc7ccc(O)c8c7[C@@]4(CCN6CC=C)[C@H]2O8)CC[C@@]3(O)[C@H]1C5` [Naloxonazine], for which the DAMGO-mediated depression in assay [2] (in the presence of Naloxonazine (50-90 nA)) is 20-35%. The “effect of opioid receptor blocker on DAMGO-mediated depression” value in assay [2] (iontophoresis) is reported as “blocked DAMGO-mediated depression in all neurons tested”.

On to `Oc1ccc2c3c1O[C@H]1c4[nH]c5ccccc5c4C[C@@]4(O)[C@@H](C2)N(CC2CC2)CC[C@]314` [Naltrindole], for which the “effect of opioid receptor blocker on DAMGO-mediated depression” value in assay [2] (iontophoresis) is listed as “without effect on all neurons tested”.

Regarding `CN1CCc2cc(Cl)c(O)cc2[C@@H](c2ccccc2)C1` [R(+)-SCH-23390, (R)(+)-7-chloro-8-hydroxy-3-methyl-1-phenyl-2,3,4,5-tetrahydro-1H-3-benzazepine], the “effect of D1 antagonist on D1 agonist effects” value in assay [3] is reported as “blocked D1 agonist effects”.
